{
  "source": "patent US10653715B2",
  "about": "“Methods and compositions for extending lifespan” (priority 2016, dated 2020)",
  "system": "B6C3F1/J mice",
  "test": "Large-scale lifespan screen of compounds in long-lived B6C3F1 hybrid mice",
  "type": "in vivo, mouse",
  "conditions": "for extension of maximal lifespan: maximal lifespan = average lifespan of the 20% longest-lived mice; for extension of mean lifespan: 15 per compound, dosed from 5 months of age throughout lifespan, relative to untreated controls",
  "text": "The majority of compounds included drugs currently used in medicine and drug-like molecules, with wide range of targets that span the entire pharmacological space.\nThe compounds were clustered into 62 drug classes based on their mechanism of action or cellular target. Screening a wide range of known compounds could potentially resolve two challenges. First, to analyze how distinct drug classes with common mechanisms of action affect aging in mammals. Second, to determine with no bias or predispositions which of the current pharmacological drugs can extend lifespan.\nIn this study, the inventors used a strain of long-lived B6C3F1 hybrid mice (C57BL/6J♀×C3H/HeJ♂) with well-characterized aging dynamics (Lipman 1999, Turturro, 1999). […] Each treatment group included 15 female mice per compound, while 335 females were used as controls. Three additional control groups included 60 female mice on dietary restriction (60% ad libitum), 60 female mice on a purified diet, and 60 male mice as gender control. Each compound treatment and diet intervention were administered to mice starting at 5 months of age, and continued throughout their lifespan. The primary endpoint was mouse mortality, from which we calculated mean lifespan, maximal lifespan, and the onset of morbidity for each experimental group. To calculate the statistical significance, the mean lifespan, maximal lifespan, and the onset of morbidity for each individual compound and drug class were compared to the lifespan distribution of untreated mice. […]",
  "key": {"[1]": {"conditions": "B6C3F1/J mice, compared to the lifespan distribution of untreated mice"}, "[2]": {"conditions": "female B6C3F1/J mice, dosed from 5 months of age, relative to controls"}},
  "note": "Values joined by “and” are separate entries in the source; they are usually repeats but may differ in a detail not shown here. Identical values can stand only once.",
  "data": [
    {"compound": "C[C@]12CC[C@@H]3c4ccc(O)cc4CC[C@H]3[C@@H]1CC[C@@H]2O", "note": "[17β-estradiol]", "values": [
      {"measurement": "effect on mean and/or maximal lifespan (in words)", "setting": "[1]", "value": "significantly shortened"},
      {"measurement": "reduction of mean lifespan", "setting": "[2]", "value": 21, "unit": "%"}
    ]},
    {"compound": "CCOC(=O)C(C)(C)Oc1ccc(Cl)cc1", "note": "[Clofibrate]", "values": [
      {"measurement": "extension of maximal lifespan", "setting": "[2]", "value": 20.9, "unit": "%"},
      {"measurement": "extension of maximal lifespan", "setting": "female B6C3F1/J mice, dosed from 5 months of age, relative to controls, listed as clofibrate", "value": 21, "unit": "%"}
    ]},
    {"compound": "CC(=O)[O-].CC(=O)[O-].[Mg+2]", "note": "[Magnesium Acetate]", "values": [
      {"measurement": "effect on mean and/or maximal lifespan (in words)", "setting": "mouse, in vivo", "value": "significantly extended"}
    ]},
    {"compound": "[Cl-].[Cl-].[Mg+2]", "note": "[Magnesium Chloride]", "values": [
      {"measurement": "effect on mean and/or maximal lifespan (in words)", "setting": "mouse, in vivo", "value": "significantly extended"}
    ]},
    {"compound": "[Mg+2].[OH-].[OH-]", "note": "[Magnesium Hydroxide]", "values": [
      {"measurement": "effect on mean and/or maximal lifespan (in words)", "setting": "mouse, in vivo", "value": "significantly extended"}
    ]},
    {"compound": "O=C(O)CN(CCN(CC(=O)O)CC(=O)O)CCN(CC(=O)O)CC(=O)O", "note": "[Pentetic acid, diethylene triamene pentaacetic acid]", "values": [
      {"measurement": "effect on mean and/or maximal lifespan (in words)", "setting": "[1]", "value": "significantly extended"},
      {"measurement": "extension of mean lifespan", "setting": "female B6C3F1/J mice", "value": 16.1, "unit": "%"},
      {"measurement": "extension of mean lifespan", "setting": "female B6C3F1/J mice, listed as pentetic acid", "value": 16, "unit": "%"}
    ]},
    {"compound": "C[C@@H]1O[C@@H](O[C@@H]2C=C3CC[C@@H]4[C@H](CC[C@]5(C)[C@@H](c6ccc(=O)oc6)CC[C@]45O)[C@@]3(C)CC2)[C@H](O)[C@H](O)[C@H]1O", "note": "[Proscillaridin A]", "values": [
      {"measurement": "effect on mean and/or maximal lifespan (in words)", "setting": "[1]", "value": "significantly extended"},
      {"measurement": "extension of mean lifespan", "setting": "female B6C3F1/J mice", "value": "16% and 16.4%"},
      {"measurement": "extension of onset of morbidity", "setting": "[2]", "value": "40% and 39.9%"}
    ]},
    {"compound": "Inulin", "values": [
      {"measurement": "effect on mean and/or maximal lifespan (in words)", "setting": "[1]", "value": "significantly extended"},
      {"measurement": "extension of mean lifespan", "setting": "female B6C3F1/J mice", "value": 16, "unit": "%"},
      {"measurement": "extension of maximal lifespan", "setting": "[2]", "value": 18, "unit": "%"}
    ]}
  ]
}
